Test results from US12312359B2 (Vitae Pharmaceuticals, LLC, priority 2016, dated 2025).

Experiments:
[1] = test system: human acute monocytic leukemia cell line MV-4-11; experiment: Assay 2: cell proliferation assay (ATP quantitation, CellTiter-Glo), MV-4-11; type: cell-based; conditions: MV-4-11 cells
Method: Potencies of inhibitor compounds against cell proliferation was assessed against the human acute monocytic leukemia cell line MV-4-11 (ATCC® CRL-9591™) based on ATP quantitation. MV-4-11 cells or toxicity control HL-60 cells (ATCC® CCL-240™) were incubated in 96-well tissue culture plates (1.67×10^4 cells in 200 μL culture media containing 10% FBS per well) with or without test compound for 72 h at 37° C., 5% CO2. After incubation, each well was mixed by pipetting and 95 μL from each well was transferred to a well in 96-well black OptiPlate® plates (PerkinElmer). An equal volume of CellTiter-Glo® Luminescent Cell Viability Assay reagent (Promega) was added to each well, followed by mixing for 5 min on an orbital plate shaker. Luminescence was measured on a Wallac EnVision 2104 Multilabel Reader (PerkinElmer) to quantitate ATP.

[2] = target: T1, biotinylated wild-type menin and MLL-AF9 fusion protein (menin/MLL binding) (Homo sapiens, UniProt O00255); experiment: Assay 1: menin/MLL binding AlphaLISA assay, wild-type menin; conditions: Table 30; column head does not say wild-type or mutated menin
T1 construct: made in house; host or cells: menin: E. coli; MLL-AF9-FLAG: HEK293 cells, used as cleared lysate
T1 sequence (O00255 1-610): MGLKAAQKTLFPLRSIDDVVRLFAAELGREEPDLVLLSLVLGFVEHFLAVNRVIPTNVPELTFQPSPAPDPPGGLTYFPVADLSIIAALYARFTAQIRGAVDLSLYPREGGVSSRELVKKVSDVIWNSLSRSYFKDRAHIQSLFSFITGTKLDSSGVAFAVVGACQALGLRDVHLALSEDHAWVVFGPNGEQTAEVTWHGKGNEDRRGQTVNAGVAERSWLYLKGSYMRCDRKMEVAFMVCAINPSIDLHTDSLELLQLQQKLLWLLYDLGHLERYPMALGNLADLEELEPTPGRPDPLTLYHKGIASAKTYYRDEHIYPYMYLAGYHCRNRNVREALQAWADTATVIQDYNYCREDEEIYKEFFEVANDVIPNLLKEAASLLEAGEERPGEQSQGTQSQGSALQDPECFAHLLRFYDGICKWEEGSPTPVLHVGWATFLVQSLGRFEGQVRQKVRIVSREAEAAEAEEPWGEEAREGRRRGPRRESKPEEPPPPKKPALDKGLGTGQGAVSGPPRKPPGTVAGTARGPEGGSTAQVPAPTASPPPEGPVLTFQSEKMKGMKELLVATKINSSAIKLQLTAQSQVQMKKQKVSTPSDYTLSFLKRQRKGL
Method: Potencies of inhibitor compounds against menin/MLL binding were assessed by AlphaLISA assay using biotinylated (1) wild-type menin or (2) mutated menin (described in Huang et al, 2012, Nature, 482, 542-546) and MLL-AF9 fusion protein bearing a FLAG epitope at its C-terminus. Menin proteins were expressed in E. coli and covalently modified with biotin using EZ-Link™ Sulfo-NHS-Biotin (ThermoFisher Cat.No. 21217) according to manufacturer's protocol. MLL1-1,396 fused to AF91-92 and the C-terminal FLAG peptide was expressed in HEK293 cells and used as a lysate cleared at 21,000×g for 10 min.
Compounds (2 μL of solutions in DMSO) were dispensed in white 96-well half-area plates (Corning Cat.No. 3693) and incubated for 30 min at RT with 5 nM biotinylated menin and appropriate amount of MLL-AF9-FLAG lysate in 40 μL of 50 mM Tris-HCl buffer pH 7.4 containing 5% (v/v) DMSO, 50 mM NaCl, 0.01% (w/v) bovine serum albumin (BSA) and 1 mM DTT. To this incubation mixture, 40 μL of AlphaLISA anti-FLAG acceptor (PerkinElmer Cat.No. AL112C) and streptavidin donor (PerkinElmer Cat.No. 6760002) beads (10 μg/mL each) was added and incubation continued at RT for 60 min. Alpha (amplified luminescent proximity homogeneous assay) signal was measured on an Envision multi-label plate reader at the end of the incubation. All steps were conducted under dim fluorescent light.
These percent inhibition values were regressed against compound concentrations in the assay using four parameter logit non-linear curve fitting (XLFit, IDBS). The IC50 values were derived from the curve fitting as inflection points on the dose-response curves and are set out in Table 30 below.

Compound | EC50 ([1]; Homo sapiens, MV4-11, 72 h) | IC50 [2] | EC50 ([1]; 72 h)
N#Cc1ccc(-c2cc(F)ccc2Oc2cncnc2N2CCC3(CCN(Cc4ccc5nn[nH]c5c4)C3)C2)c(C2CC2)c1 (stereo not shown) [Example 171, 2′-((4-(7-((1H-benzo[d][1,2,3]triazol-6-yl)methyl)-2,7-diazaspiro[4.4]nonan-2-yl)pyrimidin-5-yl)oxy)-2-cyclopropyl-5′-fluoro-[1,1′-biphenyl]-4-carbonitrile] | < 100 nM | < 100 nM | 
CC1CCC(C)N1C(=O)c1cc(F)ccc1Oc1cncnc1N1CCC2(CCN(Cc3ccc4[nH]c(=O)[nH]c4c3)C2)C1 (stereo not shown) [Example 153, 5-((7-(5-(2-(2,5-dimethylpyrrolidine-1-carbonyl)-4-fluorophenoxy)pyrimidin-4-yl)-2,7-diazaspiro[4.4]nonan-2-yl)methyl)-1,3-dihydro-2H-benzo[d]imidazol-2-one] | 100 to 1000 nM | < 100 nM | 
CC(C)N(C(=O)c1cc(F)ccc1Oc1cncnc1N1CCC2(CC(N)C(Cc3ccc4[nH]c(=O)[nH]c4c3)C2)C1)C(C)C (single isomer, unassigned) [Example 24B, 2-((4-(7-amino-8-((2-oxo-2,3-dihydro-1H-benzo[d]imidazol-5-yl)methyl)-2-azaspiro[4.4]nonan-2-yl)pyrimidin-5-yl)oxy)-5-fluoro-N,N-diisopropylbenzamide] |  | < 100 nM | ≥ 1000 nM
CC(C)N(C(=O)c1cc(F)ccc1Nc1cncnc1N1CCC2(CC1)CN(C1CCC(NS(C)(=O)=O)CC1)C2)C(C)C (single isomer, unassigned) [Example 248B, 5-fluoro-N,N-diisopropyl-2-((4-(2-(4-(methylsulfonamido)cyclohexyl)-2,7-diazaspiro[3.5]nonan-7-yl)pyrimidin-5-yl)amino) benzamide] |  | < 100 nM | 100 to 1000 nM
N#Cc1ccc(-c2cc(F)cc(F)c2Oc2cncnc2N2CCC3(CCN(Cc4ccc5[nH]c(=O)[nH]c5c4)C3)C2)c(C2CC2)c1 (stereo not shown) [Example 52, 2-cyclopropyl-3′,5′-difluoro-2′-((4-(7-((2-oxo-2,3-dihydro-1H-benzo[d]imidazol-5-yl)methyl)-2,7-diazaspiro[4.4]nonan-2-yl)pyrimidin-5-yl)oxy)-[1,1′-biphenyl]-4-carbonitrile] |  | < 100 nM | < 100 nM
Cn1c(-c2cc(F)ccc2Oc2cncnc2N2CCC3(CCN(Cc4ccc5c(c4)[nH]c(=O)n5CCO)C3)C2)c(C2CC2)ccc1=O (single isomer, unassigned) [Example 81A, 5-((7-(5-(2-(3-cyclopropyl-1-methyl-6-oxo-1,6-dihydropyridin-2-yl)-4-fluorophenoxy)pyrimidin-4-yl)-2,7-diazaspiro[4.4]nonan-2-yl)methyl)-1-(2-hydroxyethyl)-1H-benzo[d]imidazol-2(3H)-one] | 100 to 1000 nM | < 100 nM | 
CC(C)c1ccccc1-c1cc(F)ccc1Oc1cncnc1N1CC2(CN(C(=O)Cc3ccc(S(C)(=O)=O)cc3)C2)C1 [Example 229, 1-(6-(5-((5-fluoro-2′-isopropyl-[1,1′-biphenyl]-2-yl)oxy)pyrimidin-4-yl)-2,6-diazaspiro[3.3]heptan-2-yl)-2-(4-(methylsulfonyl)phenyl)ethan-1-one] | 100 to 1000 nM | < 100 nM | 
CC(C)N(C(=O)c1cc(F)ccc1Oc1cncnc1N1CC2(CCN(CC3CC3)C2)C1)C(C)C [Example 103, 2-((4-(6-(cyclopropylmethyl)-2,6-diazaspiro [3.4]octan-2-yl)pyrimidin-5-yl)oxy)-5-fluoro-N,N-diisopropylbenzamide] | 100 to 1000 nM | < 100 nM | 
CC(C)c1ncncc1-c1cc(F)ccc1Oc1cncnc1N1CC2(CC(NCc3ccc(F)cc3)CO2)C1 (stereo not shown) [Example 18, 2-(5-(4-fluoro-2-(4-isopropylpyrimidin-5-yl)phenoxy)pyrimidin-4-yl)-N-(4-fluorobenzyl)-5-oxa-2-azaspiro[3.4]octan-7-amine] | 100 to 1000 nM | < 100 nM | 
CC(C)N(C(=O)c1cc(F)ccc1Oc1cncnc1N1CC2(CCN(CC3CCOCC3)CC2)C1)C(C)C [Example 101, 5-fluoro-N,N-diisopropyl-2-((4-(7-((tetrahydro-2H-pyran-4-yl)methyl)-2,7-diazaspiro[3.5]nonan-2-yl)pyrimidin-5-yl)oxy)benzamide] | 100 to 1000 nM | < 100 nM | 
CC(C)c1ncncc1-c1cc(F)ccc1Oc1cncnc1N1CC2(CN(C(=O)Cc3ccc4c(c3)NC(=O)C4(C)C)C2)C1 [Example 133, 6-(2-(6-(5-(4-fluoro-2-(4-isopropylpyrimidin-5-yl)phenoxy)pyrimidin-4-yl)-2,6-diazaspiro[3.3]heptan-2-yl)-2-oxoethyl)-3,3-dimethylindolin-2-one] | 100 to 1000 nM | < 100 nM | 
N#Cc1ccc(CCN2CC3(C2)CN(c2ncncc2Oc2ccc(F)cc2-c2ccc(C#N)cc2C2CC2)C3)cc1 [Example 203, 2′-((4-(6-(4-cyanophenethyl)-2,6-diazaspiro[3.3]heptan-2-yl)pyrimidin-5-yl)oxy)-2-cyclopropyl-5′-fluoro-[1,1′-biphenyl]-4-carbonitrile] | ≥ 1000 nM | < 100 nM | 
CC(C)N(C)C(=O)c1cc(F)ccc1Oc1cncnc1N1CC2(CCN(C[C@H]3CC[C@H](NS(C)(=O)=O)CC3)CC2)C1 [Example 93, 5-fluoro-N-isopropyl-N-methyl-2-((4-(7-(((1r,4r)-4-(methylsulfonamido)cyclohexyl)methyl)-2,7-diazaspiro [3.5]nonan-2-yl)pyrimidin-5-yl)oxy)benzamide] | 100 to 1000 nM | < 100 nM | 
CC(C)(C)OC(=O)N[C@H]1CC[C@H](CCN2CC3(C2)CN(c2ncncc2Oc2ccc(F)cc2-c2cccnc2C2CC2)C3)CC1 [Example 88, tert-butyl ((1r,4r)-4-(2-(6-(5-(2-(2-cyclopropylpyridin-3-yl)-4-fluorophenoxy)pyrimidin-4-yl)-2,6-diazaspiro[3.3]heptan-2-yl)ethyl)cyclohexyl) carbamate] | < 100 nM | < 100 nM | 
CC(C)(O)c1ccccc1-c1cc(F)ccc1Oc1cncnc1N1CCC2(CCN(Cc3ccc4[nH]c(=O)[nH]c4c3)C2)C1 (stereo not shown) [Example 63, 5-((7-(5-((5-fluoro-2′-(2-hydroxypropan-2-yl)-[1,1′-biphenyl]-2-yl)oxy)pyrimidin-4-yl)-2,7-diazaspiro[4.4]nonan-2-yl)methyl)-1H-benzo[d]imidazol-2(3H)-one] | < 100 nM | < 100 nM | 
N#Cc1ccc(-c2cc(F)ccc2Oc2cncnc2N2CCC3(CCN(Cc4ccc5c(c4)NC(=O)C5)C3)C2)c(C2CC2)c1 (stereo not shown) [Example 196, 2-cyclopropyl-5′-fluoro-2′-((4-(7-((2-oxoindolin-6-yl)methyl)-2,7-diazaspiro[4.4]nonan-2-yl)pyrimidin-5-yl)oxy)-[1,1′-biphenyl]-4-carbonitrile] | < 100 nM | < 100 nM | 
CCOC(=O)c1ccccc1-c1cc(F)ccc1Oc1cncnc1N1CCC2(CCN(Cc3ccc4[nH]c(=O)[nH]c4c3)C2)C1 (stereo not shown) [Example 223, ethyl 5′-fluoro-2′-((4-(7-((2-oxo-2,3-dihydro-1H-benzo[d]imidazol-5-yl)methyl)-2,7-diazaspiro[4.4]nonan-2-yl)pyrimidin-5-yl)oxy)-[1,1′-biphenyl]-2-carboxylate] | 100 to 1000 nM | < 100 nM | 
